Assay [1] deals with vesicular stomatitis virus (VSV).
The test system of assay [2] is P388 tumor cells. On the set-up: species or system DBA/BALB(F1) male mice. Particulars: mouse, in vivo, ip, 5 mg/kg.
Assay [3] concerns erythroleukemia tumor cells. Details: species or system C57BL male mice. The note with it: mouse, in vivo.

Turning to Disodium succinate hexahydrate, the “protection of cells against virus-induced cytopathology” value in assay [1] is “no effect”.
Take “Recombinant human interferon-alpha2b [IFN]”: the figures for the Tumor mass in assay [2] and in assay [3] were 4800 ± 500 mg and 354 ± 16 mg, respectively.

Values taken from patent publication US20030147850A1 (priority 2002, published 2003).
